These results are taken from patent US12589078B2, “Lipid nanoparticles for delivery of nucleic acids” (CureVac SE, priority 2019, dated 2026).

One assay concerns rabies virus. It is filed as in vivo, mice. The settings on record: all animals, day 21 after prime.
The subject of assay [1] is tumor antigen Trp2. The experiment in a line: Trp2 mRNA vaccination i.d.: IgG1/IgG2 endpoint titers (ELISA). Conditions: C57/BL6 mice, day 0, 7, 14. (In general: ELISA stands for enzyme-linked immunosorbent assay.)
The test system of assay [2] is tumor antigen Trp2. The experiment in a line: Trp2 mRNA vaccination i.d.: T-cell response (TNFα+/IFNγ+ CD4+/CD8+). The settings on record: C57/BL6 mice, day 0, 7, 14.
Assay [3] in a line: Zeta potential by Laser Doppler Microelectrophoresis. The format is physicochemical.
Assay [4] in a line: Particle size and PDI by dynamic light scattering (Malvern Zetasizer Nano). It is filed as physicochemical.
In assay [5] the test system is malaria [NANP]7 peptide or C-terminus peptides. The experiment in a line: Malaria CSP mRNA vaccination: ELISA endpoint titers. It is filed as in vivo, mice. The settings on record: CSP mRNA i.m., day 35 post prime, Example 22. From the text:
The mRNA was further enzymatically capped using ScriptCap™ m7G Capping System (CellScript, Madison,WI., USA) according to the manufacturer's instructions and enzymatically polyadenylated using a commercial polyadenylation kit, resulting in SEQ ID NO:38.
The GN01-LNP formulations were applied on days 0 and 21 intramuscularly (i.m.; musculus tibialis) with doses of RNA, formulations, and control groups as shown in Table Ex-20. A negative control group received vaccinations with an irrelevant RNA, formulated in GN01-LNPs. Serum samples were taken at day 21 and day 35 for ELISA.
ELISA was performed using malaria [NANP]7 peptide or C-terminus peptides for coating. Coated plates were incubated using respective serum dilutions, and binding of specific antibodies to the respective malaria [NANP]7 or C-terminus peptide were detected using biotinylated isotype specific anti-mouse antibodies followed by streptavidin-HRP (horse radish peroxidase) with Amplex™ Red Reagent as substrate. Endpoint titers of antibodies (IgG1, IgG2a) directed against the malaria [NANP]7 or C-terminus peptide were measured by ELISA on day 21 and day 35 post prime. […]
ELISA was performed using malaria [NANP]7 peptide for coating. […] Endpoint titers of antibodies (total IgG or IgG as indicated in the respective Figures) directed against the malaria [NANP]7 peptide were measured by ELISA on day 35 post prime.

Molecules are shown by their SMILES. “And” between values parts separate entries of the source, which are not always exact repeats. Identical values can stand only once. Like-named read-outs stand apart in the source and are kept apart here. Some results are limits rather than exact numbers.

In turn, `CCCCCCCCC(CCCCCC)COC(=O)CCCC(=O)OCCC1CCN(CCSSCCN2CCC(CCOC(=O)CCCC(=O)OCC(CCCCCC)CCCCCCCC)CC2)CC1` (centres unmarked) [Lipid C2, O1-[2-[1-[2-[2-[4-[2-[5-(2-hexyldecoxy)-5-oxo-pentanoyl]oxyethyl]-1-piperidyl]ethyldisulfanyl]ethyl]-4-piperidyl]ethyl] 05-(2-hexyldecyl) pentanedioate] came in with a VNTs in the assay on rabies virus (single i.m. 5 μg RABV-G-mRNA) of more than 0.5 IU/ml.
Consider `CCN1CCC(CCOC(=O)C(CCSSCCC(NC(=O)CC(=O)Oc2c(C)c(C)c3c(c2C)CCC(C)(CCCC(C)CCCC(C)CCCC(C)C)O3)C(=O)OCCC2CCN(CC)CC2)NC(=O)CC(=O)Oc2c(C)c(C)c3c(c2C)CCC(C)(CCCC(C)CCCC(C)CCCC(C)C)O3)CC1` (centres unmarked) [Lipid C10, VitE-C4DE-CysPipSS], for which, in the assay on tumor antigen Trp2 [1], the “IgG1 and IgG2 titers” value was “stable IgG1 and IgG2 titers”. For the same compound, in the assay with tumor antigen Trp2 [2], the T-cell responses entry is given as “low T-cell responses”. The zeta potential in assay [3] is 36.00 mV and 26.00 mV. Besides, in assay [4], the PDI was 0.50 and 0.34; the size is 103 nm and 67 nm.
As for `Cc1c(C)c2c(c(C)c1OC(=O)CCC(=O)OCCC1CCN(CCSCCN3CCC(CCOC(=O)CCC(=O)Oc4c(C)c(C)c5c(c4C)CC[C@@](C)(CCC[C@H](C)CCC[C@H](C)CCCC(C)C)O5)CC3)CC1)CC[C@@](C)(CCC[C@H](C)CCC[C@H](C)CCCC(C)C)O2` [Lipid C26, VitE-C4DE-Piperidine-Thioether], the VNTs with rabies virus (single i.m. 1 μg RABV-G-mRNA) is given as more than 0.5 IU/ml. Also, in assay [5], the “IgG1 endpoint titers ([NANP]7 peptide)” value is given as “very strong humoral immune responses”.
